Data as given in patent US12459951B2, “Compounds that interact with RAS superfamily proteins for treatment of cancers, inflammatory diseases, rasopathies, and fibrotic disease” (SHY Therapeutics, LLC, priority 2022, dated 2025).

Assays:
Erk1/2 phosphorylation = experiment: Erk1/2 Phosphorylation Assay (western blot), Panc-1; format: cell-based, human; conditions: at 10 μM, * = activation
How it was run: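 KRas G12D Panc-1 cells were treated 6 h at 37° C with compound at 10 μM or serial dilutions for IC50 (0.3% DMSO). In method 1, cells were serum-starved overnight (0.5% FBS) and then given 1.5 ng/ml EGF for 15 min. In method 2, cells stayed in 10% FBS without stimulation. Lysate phospho-Erk1/2 (Thr202/Tyr204) was read by western blot.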

KRas G12D mutant = experiment: Ras GTP Binding Domain Inhibition Assay (Ras Superfamily Assay); conditions: 20 μM compound; for KRas G12D mutant + SOS: % inh.: with SOS; for KRas G12D mutant: % inh.: without SOS
How it was run: (§1)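 Binding of 100 nM fluorescent GTP (Cy3 or Cy5, 45 min, room temperature) was read after washes from plate-captured His-tagged protein. Beforehand, compounds at 20 μM or in dilution series for IC50 sat 3 h on the protein in Tris buffer pH 7.4 or 7.0 with 1% DMSO, Sos GEF optionally added for the last hour.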

KRas wild type = experiment: as above; conditions: 20 μM compound; for KRas wild type + SOS: % inh.: with SOS; for KRas wild type: % inh.: without SOS
How it was run: as §1

Rac-1 = biological target: T1, Rac-1 (Homo sapiens, UniProt P63000); experiment: as above; conditions: read-out: Rac-1: % inh.
T1 construct: made in house
How it was run: as §1

| Compound | % inh of Erk1/2 phosphorylation in Panc-1 (Erk1/2 phosphorylation) | KRas G12D mutant + SOS: % inh. (KRas G12D mutant) | KRas G12D mutant: % inh. (KRas G12D mutant) | KRas wild type + SOS: % inh. (KRas wild type) | KRas wild type: % inh. (KRas wild type) | inhibition at 20 µM (Rac-1) [%] |
| --- | --- | --- | --- | --- | --- | --- |
| Cc1c(-c2ccn(C)n2)cn2nc(-c3nccn3C)nc(Nc3ccncn3)c12.Cl [Compound 116, 5-Methyl-2-(1-methyl-1H-imidazol-2-yl)-6-(1-methyl-1H-pyrazol-3-yl)-N-(pyrimidin-4-yl)pyrrolo[2,1-f][1,2,4]triazin-4-amine hydrochloride salt] | D* (85-100% activation) | C (C = 50-75% inhibition) | C (C = 50-75% inhibition) | D (D = 76-100% inhibition) | C (C = 50-75% inhibition) | 50 to 75 |
| Cc1c(-c2ccn(C3CC3)n2)cn2nc(-c3nccn3C)nc(Nc3cc(O)ccn3)c12 [Compound 150, 2-((6-(1-Cyclopropyl-1H-pyrazol-3-yl)-5-methyl-2-(1-methyl-1H-imidazol-2-yl)pyrrolo[2,1-f][1,2,4]triazin-4-yl)amino)pyridin-4-ol] | A (1-25% inhibition) | D (D = 76-100% inhibition) | D (D = 76-100% inhibition) | D (D = 76-100% inhibition) | D (D = 76-100% inhibition) | 50 to 75 |
| Cc1c(-c2ccn(C(C)C)n2)cn2nc(-c3ccccn3)nc(O)c12 [Compound 8, 6-(1-Isopropyl-1H-pyrazol-3-yl)-5-methyl-2-(pyridin-2-yl)pyrrolo[2,1-f][1,2,4]triazin-4-ol] | 0 (0% inhibition) | A (A = 1-25% inhibition) | 0 (0 = 0% inhibition) | 0 (0 = 0% inhibition) | A (A = 1-25% inhibition) | 0 |
| COc1cc(Nc2nc(-c3nccn3C)nn3cc(-c4ccn(C5CC5)n4)c(C)c23)ncn1 [Compound 135, 6-(1-Cyclopropyl-1H-pyrazol-3-yl)-N-(6-methoxypyrimidin-4-yl)-5-methyl-2-(1-methyl-1H-imidazol-2-yl)pyrrolo[2,1-f][1,2,4]triazin-4-amine] | D* (85-100% activation) | D (D = 76-100% inhibition) | D (D = 76-100% inhibition) | D (D = 76-100% inhibition) | D (D = 76-100% inhibition) | 76 to 100 |
| Cc1c(-c2ccn(C3CC3)n2)cn2nc(-c3nccn3C)nc(Nc3ccccn3)c12 [Compound 143, 6-(1-Cyclopropyl-1H-pyrazol-3-yl)-5-methyl-2-(1-methyl-1H-imidazol-2-yl)-N-(pyridin-2-yl)pyrrolo[2,1-f][1,2,4]triazin-4-amine] | D* (85-100% activation) | D (D = 76-100% inhibition) | D (D = 76-100% inhibition) | D (D = 76-100% inhibition) | D (D = 76-100% inhibition) | 76 to 100 |
| CCc1nc(Nc2nc(-c3nccn3C)nn3cc(-c4ccn(C)n4)c(C)c23)nn1C [Compound 108, N-(5-Ethyl-1-methyl-1H-1,2,4-triazol-3-yl)-5-methyl-2-(1-methyl-1H-imidazol-2-yl)-6-(1-methyl-1H-pyrazol-3-yl)pyrrolo[2,1-f][1,2,4]triazin-4-amine] | A* (1-25% activation) | C (C = 50-75% inhibition) | D (D = 76-100% inhibition) | C (C = 50-75% inhibition) | D (D = 76-100% inhibition) | 76 to 100 |
| CO[C@@H]1CC[C@@H](Nc2nc(-c3nccn3C)nn3cc(-c4ccn(C)n4)c(C)c23)C1 (racemic) [Compound 132, rac N-((1R,3R)-3-Methoxycyclopentyl)-5-methyl-2-(1-methyl-1H-imidazol-2-yl)-6-(1-methyl-1H-pyrazol-3-yl)pyrrolo[2,1-f][1,2,4]triazin-4-amine] | 0 (0% inhibition) | A (A = 1-25% inhibition) | B (B = 26-49% inhibition) | 0 (0 = 0% inhibition) | B (B = 26-49% inhibition) | 1 to 25 |
| Cc1c(-c2ccn(C3CC3)n2)cn2nc(-c3nccn3C)nc(Nc3cc(OCC(F)(F)F)ccn3)c12 [Compound 140, 6-(1-Cyclopropyl-1H-pyrazol-3-yl)-5-methyl-2-(1-methyl-1H-imidazol-2-yl)-N-(4-(2,2,2-trifluoroethoxy)pyridin-2-yl)pyrrolo[2,1-f][1,2,4]triazin-4-amine] | D* (85-100% activation) | D (D = 76-100% inhibition) | C (C = 50-75% inhibition) | C (C = 50-75% inhibition) | C (C = 50-75% inhibition) | 76 to 100 |
| COc1ccnc(Nc2nc(-c3nccn3C)nn3cc(-c4cnn(C(C)C)c4)c(C)c23)c1 [Compound 165, 6-(1-Isopropyl-1H-pyrazol-4-yl)-N-(4-methoxypyridin-2-yl)-5-methyl-2-(1-methyl-1H-imidazol-2-yl)pyrrolo[2,1-f][1,2,4]triazin-4-amine] | C* (46-84% activation) | D (D = 76-100% inhibition) | D (D = 76-100% inhibition) | D (D = 76-100% inhibition) | D (D = 76-100% inhibition) | 50 to 75 |
| COCCO[C@H]1C[C@H](Nc2nc(-c3nccn3C)nn3cc(-c4cccnc4)c(C)c23)C1 [Compound 152, N-((1r,3r)-3-(2-methoxyethoxy)cyclo-butyl)-5-methyl-2-(1-methyl-1H-imidazol-2-yl)-6-(pyridin-3-yl)pyrrolo[2,1-f][1,2,4]triazin-4-amine] | B* (26-49% activation) | C (C = 50-75% inhibition) | C (C = 50-75% inhibition) | B (B = 26-49% inhibition) | C (C = 50-75% inhibition) | 50 to 75 |
